Experiments:
[1] = tested on: RAW-Blue NF-kB/AP1 reporter cell line; assay: NF-κB and AP-1 activity assay (SEAP reporter, alkaline phosphatase activity); assay type: cell-based; conditions: 25 μM, 24 h, compared to vehicle alone (FIG. 1)
Procedure: NF-κB and AP-1 Activity Assay. NF-kB and AP-1 activity was analyzed using the RAW-Blue NF-kB/AP1 reporter cell line (InvivoGen, San Diego, CA, USA), which contains a secreted embryonic alkaline phosphatase (SEAP) reporter construct, inducible by NF-κB and AP-1. Cells were cultured in RPMI 1640 medium supplemented with 10% FBS (Atlanta Biologicals, Flowery Branch, GA, USA) and 1% penicillin streptomycin (Life Technologies, Carlsbad, CA, USA), and stimulated with 25 μM PEN or DMSO (vehicle control) for 24 h. Culture supernatants were then collected and alkaline phosphatase activity was determined by incubating with the detection medium QUANTI-Blue (InvivoGen), and measuring at 655 nm using a SpectraMax spectrophotometer (Molecular Devices LLC, Sunnyvale CA, USA) and analyzed using Softmax Pro software (Molecular Devices LLC).

[2] = tested on: RAW macrophages (RAW 264.7); assay: Macrophage activation: surface expression of MHC-II, CD40, CD80, CD86 by flow cytometry; assay type: cell-based
Procedure: (§1) Macrophage Activation. RAW macrophages (RAW 264.7 (ATCC TIB-71), ATCC, Manassas, VA, USA) were plated at a concentration of 0.5×10^6 cells per well in 24-well plates, and treated with PEN (25 μM or 50 μM) or DMSO (vehicle control) for 24, 48 and 72 h. At the indicated times, cells were harvested for detection of MHC-II, CD40, CD80, CD86 surface expression by flow cytometry. RNA was also extracted from cells to determine gene expression of Tnfα, Il1b, Il6, IL10, Il15, Il18, Nos2, Arg1, and Chil3 by RT-PCR.
Flow Cytometry. Macrophages treated with PEN or the DMSO control were harvested, washed in PBS, blocked with normal mouse serum, and incubated with fluorochrome conjugated antibodies against the cell surface markers CD40, CD80, CD86 and MHC-II (Biolegend). Cells were acquired on a BD FACS Calibur (BD Biosciences) and analysis was performed using FlowJo software (Tree Star Inc, Ashland, OR, USA).

[3] = tested on: RAW macrophages (RAW 264.7); assay: Macrophage gene expression by RT-PCR; assay type: cell-based
Procedure: as §1
Real Time PCR. Total RNA was extracted from RAW macrophages using TRIzol reagent (Life Technologies). RNA was reverse-transcribed to cDNAs using an iScript reverse transcriptase kit (Bio-Rad, Hercules, CA, USA). Real-time PCR reactions using the IQ SYBR Green mix reagent were performed in a CFX96 RT-PCR cycler (Bio-Rad). Primer sequences for Tnfa, Illb, 116, IL10, 1115, 1118, Nos2, Argl and Chil3 were selected from the Primer Bank database (pga.mgh.harvard.edu/primerbank). Data were normalized to the reference gene β-actin and presented as fold induction over controls.

[4] = tested on: Bone marrow-derived dendritic cells (BMDCs); assay: Cytokine production (ELISA) by bone marrow-derived dendritic cells; assay type: cell-based, C57BL/6 mice
Procedure: Isolation of Mouse Bone Marrow-derived Dendritic Cells. Bone marrow-derived dendritic cells (BMDCs) were prepared by harvesting bone marrow cells from the femurs and tibias of C57BL/6 mice. Red blood cell lysis was performed in ACK lysis buffer, and subsequent cells were plated in RPMI medium supplemented with 10% FBS, 1% penicillin-streptomycin (Life Technologies) and 20 ng/mL GM-CSF (Peprotech, Rocky Hill, NJ, USA) at 5 million cells/dish for 6 to 8 days. Cells were harvested then stimulated with PEN (25 μM or 50 μM) or DMSO for 24 h, and culture supernatants were collected for detection of IL-12 and IL-10 cytokines by ELISA.
(§2) Cytokine ELISA. Purified anti-mouse antibodies against IFN-γ, IL-4, IL-10, IL-12 (Biolegend, San Diego, CA, USA) and IL-13 (eBiosciences, San Diego, CA, USA) were used to coat plates. Recombinant mouse IFN-γ, IL-4, IL-10, IL-12 and IL-13 (BD Biosciences, San Jose, CA, USA) were used as standards. Biotinylated anti-mouse antibodies for IFN-γ, IL-4, IL-10, IL-12 and IL-13 (Biolegend, San Diego, CA) were used as detection antibodies. AKP-streptavidin (BD Biosciences) and p-nitrophenylphosphate (PNPP, Thermo Fisher Scientific, Waltham, MA, USA) were used for detection. Absorbance was measured at 405 nm using a Spectramax microplate reader and data were analyzed by Softmax Pro software (Molecular Devices LLC, Sunnyvale, CA).

[5] = tested on: OT-II T cells co-cultured with BMDCs; assay: T cell co-culture with OVA-peptide-loaded BMDCs (CFSE proliferation, IFN-γ ELISA); assay type: cell-based, OT-II transgenic mice
Procedure: T Cell Co-culture Experiments 5×10^4 BMDCs were pulsed with 10 μg/mL OVA323-339 peptide (Anaspec, Fremont, CA, USA) for 2 h, then incubated with PEN (25 μM or 50 μM) or DMSO (vehicle control) for 24 h. CFSE labeled T cells isolated from spleens of OT-II transgenic mice were added to the wells at a 1:4 (BMDC:T cell) ratio and incubated for 72 h. Antigen-specific T cell proliferation was analyzed by flow cytometry of CFSE stained cells. Cell co-culture supernatants were collected for analysis of IFN-γ cytokine production by ELISA.
as §2

OVA-immunized mice [6] = assay: Mouse immunization study: serum IgG1 and IgG2a antibody ELISA; assay type: in vivo, BALB/c mice; conditions: 10 μg and 100 μg with 100 μg OVA s.c., compared to vehicle controls (FIG. 6)
Procedure: (§3) Mouse Immunization Studies. Six- to seven-week-old female BALB/c mice were purchased from Harlan Laboratories (Indianapolis, IN, USA). Mice were randomized into three groups, and immunized subcutaneously with 100 μg OVA (endotoxin free; BioVendor, Ashville, NC, USA) plus vehicle (Group 1), 100 μg OVA plus 10 μg PEN (Group 2), or 100 μg OVA plus 100 μg PEN (group 3, […]). Each group received respective boosting doses of treatment at weeks 2 and 4. Serum was collected from each mouse at every two weeks after initial immunization for detection of IgG1 and IgG2A antibodies by ELISA. Mice were euthanized at week 10 and spleens and lymph nodes were harvested for detection of cytokines IFN-γ, IL-4, IL-10 and IL-13 by ELISA after re-stimulation with 1 mg/mL OVA antigen for 72 h.
Antibody ELISA. Mice were bled at weeks 2, 4, 6, 8 and 10 after immunization and serum was collected from the blood samples. IgG1 and IgG2a antibody titers were determined by ELISA using HRP-conjugated antibodies (Biolegend) and TMB substrate (KPL, Inc., Gaithersburg, MD, USA). Absorbance was measured at 450 nm by Spectramax microplate reader and data were analyzed by Softmax Pro software (Molecular Devices LLC).

OVA-immunized mice [7] = assay: Mouse immunization study: cytokines of spleen and lymph node cells after ex vivo OVA re-stimulation; assay type: in vivo, BALB/c mice
Procedure: as §3, §2

[8] = both concentrations (25 μM, 50 μM), 72 h

C=C(CCC=C(C)C)[C@H]1CC[C@H]2[C@@H]3CCC4=CC(=O)CC[C@]4(C)[C@H]3CC[C@]12C [PEN, pentalinonsterol]
alkaline phosphatase activity (NF-κB/AP-1 SEAP reporter) [1]: significantly increased | expression of CD40 ([2]; 25 μM and 50 μM, after 72 h (FIGS. 2A, 2E)): significantly enhanced | expression of MHC-II ([2]; 25 μM and 50 μM, at 48 h and 72 h (FIGS. 2B, 2F)): significantly enhanced | expression of CD80 ([2]; 50 μM, 48 h): increased | expression of CD86 ([2]; 50 μM, 48 h): increased | expression of CD80 [2, 8]: increased | expression of CD86 [2, 8]: increased | transcript levels of Arg1 [3]: increased | IL-15 gene transcripts ([3]; 25 μM, after 24 h (FIG. 3E)): increased | IL-18 gene transcripts ([3]; 25 μM, after 24 h (FIG. 3F)): increased | Il1b gene expression ([3]; 24 and 48 h, not statistically significant (FIG. 3B)): increased trend | mRNA levels of Tnfα ([3]; 48 h (FIG. 3A)): increases | mRNA levels of Il6 ([3]; 48 h (FIG. 3C)): increases | gene transcript levels of Nos2 ([3]; after 48 h (FIG. 3D)): significantly increased | transcript levels of Chil3 ([3]; at 24 h and 48 h): significantly reduced | transcript levels of IL-10 ([3]; at 48 h): significantly reduced | IL-10 production ([4]; 50 μM, 24 h (FIG. 4B)): slight increase | production of IL-12 ([4]; 24 h (FIG. 4A)): significantly induces | T cell proliferation ([5]; 72 h co-culture, PEN-treated vs DMSO-treated BMDCs (FIG. 4C)): higher | production of IFN-γ by T cells ([5]; 72 h co-culture, PEN-treated vs DMSO-treated BMDCs (FIG. 4D)): significantly increased | T cell responses (proliferation and IFN-γ), 50 μM compared to 25 μM ([5]; BMDCs treated with 50 μM vs 25 μM): greater | IgG1 antibody titers (OVA-immunized mice [6]): significantly increased | IgG2a antibody titers (OVA-immunized mice [6]): significantly increased | levels of IL-4 (OVA-immunized mice [7]; culture supernatants of lymph node and splenic cells (FIGS. 7B, 7F)): increased | levels of IL-13 (OVA-immunized mice [7]; culture supernatants of lymph node and splenic cells (FIGS. 7D, 7H)): increased | levels of IL-10 (OVA-immunized mice [7]; culture supernatants of lymph nodes and spleens, PEN vs vehicle control (FIGS. 7C, 7G)): generally comparable | levels of IFN-γ (OVA-immunized mice [7]; lymph node cells and splenocytes, OVA re-stimulation (FIGS. 7A, 7E)): significantly increased

Source: US12478671B2, “Sterols as novel immunomodulatory agents and their use as vaccine adjuvants” (Ohio State Innovation Foundation, priority 2017, dated 2025)
